The record followed here is patent US8758769B2, “Composition for preventing and treating acetaminophen inducing liver injury comprising the protein extract from Porphyra yezoensis” (Pukyong National University Industry Academic Cooperation …, priority 2006, dated 2014).

SMILES strings stand for the structures.

Data set [1] concerns PCNA and caspase-3 in liver cell. Description: Liver cell injury inhibition by seaweed protein: PCNA and caspase-3 expression (western blot). The data set is classed as cell-based. The settings on record: 20 mM AAP with or without seaweed protein. The protocol: Through the above results, it is confirmed that the cell apoptosis of the liver cell is induced by the increase of the AAP concentration and accordingly, the seaweed protein and AAP are processed together and the liver injury inhibition effect of the seaweed protein by AAP is confirmed.
At first, the degree of the PCNA protein expression capable of securing the recovery of the injured cell is confirmed. For this, a liver tissue is homogenized by lysis buffer (25 mM HEPES, pH 7.5, 5 mM EDTA, 2 mM DTT, 0.1% CHAPS) containing the protease inhibitor and then centrifuged by 14,000×g at 4° C. Thereafter, the protein concentration of the obtained upper layer solution is measured by means of a BCA protein assay kit. A loading process is performed by 50[…] per each lane, an electrophoresis process is performed by SDS-PAGE, and thereafter it is moved toward the PVDF membrane (Millipore, USA). At this time, the rainbow molecular marker (amersham) is used as the standard molecular weight. In the separated protein, the expressin of the caspase-3 protein is confirmed by means of Super Signal West Pico Chemiluminescent Substrate (pierce biotechnology incorporation, USA). […]
For orientation: In western blotting, separated proteins are transferred to a membrane and probed.

Another data set concerns caspase-3. The data set can be described thus: Caspase-3 activity in the liver tissue (DEVD-pNA substrate). The class given is in vivo, rat. The settings on record: rats, AAP 700 mg/kg; control group 100%. The protocol:
Accordingly, to confirm the cell apoptosis when generating the liver injury by AAP, the activity of the caspase-3 is measured. For this, the liver tissue is homogenized by the lysis buffer (25 mM HEPES, pH 7.5, 5 mM EDTA, 2 mM DTT, 0.1% CHAPS) containing the protease inhibitor and centrifuged by 14,000×g at 4° C. The protein concentration of the obtained upper solution is measured by a BCA protein assay kit. Thereafter, 80[…] of protein is inserted into the 96-well, then the DEVD-pNA substrate is inserted, thereafter, a reaction is progressed for 4 hours at 37° C. The absorbance is measured at 405 nm.

The next data set concerns HepG2 cell. The data set can be described thus: Cell apoptosis of the liver cell line by AAP (DAPI dyeing, DNA fragmentation). The data set is classed as cell-based. The settings on record: HepG2, culture for 24 hours with AAP. The text has this: Accordingly, to confirm that the cell proliferation inhibition effect by AAP is a phenomenon by the cell apoptosis, the cell with AAP and cell with no AAP are washed by PBS by means of the characteristics in which only DNA within the cell nucleus, especially, only the cell apoptosis DNA is dyed. Thereafter, the cells are dyed by the DAPI solution and then observed by a fluorescent microscopy.
Specifically, the HepG2 cell treated by the seaweed protein is washed by PBS, fixed at the room temperature for 10 minutes by 3.7% of paraformaldehyde, and dyed by means of the 4,6-diamindino-2-phenylindole (DAPI)(sigma) solution as fluorescent materials for 10 minutes. These cells are again washed by twice and the form change of the nucleus thereof is compared with that of the normal group by means of a fluorescence microscope.
To examine the DNA fragmentation phenomenon, the seaweed protein purified by the example 1 is added to the liver cell by concentration (0˜100[…]/□), then cultured for 24 hours, and thereafter mixed with the homogenate (nuclear lysis buffer, 100 mM NaCl2, 40 mM Tris-Cl, pH 7.4, 20 mM EDTA, 0.5% SDS). […] 10[…] of DNA is treated by an electrophoresis manner (50V, 2 hours) in the agarose cell, dyed by editium bromide, and measured by means of ultraviolet rays and the like.

Another data set deals with HepG2 liver cell. Description: LDH activity, toxicity of HepG2 liver cell by AAP treatment. The data set is classed as cell-based. The settings on record: HepG2, AAP 10, 20 and 40 mM. The protocol: To examine the toxicity of the liver cell by the AAP treatment, the activity of LDH is measured. That is, 100[…] per a well with the concentration of 2×10^4 cells/ml is divided into 96-well microplates (palcon, USA) and cultured. After 24 hours, a medium is replaced with an MEM medium including 1% FBS, then cultured again for 24 hours, and thereafter treated by an assay medium of 100[…] and AAP 100[…] (10, 20 and 40 mM). The obtained upper solution of 100[…] is moved into a new 96-well microplate, then 100[…] of the reaction mixture (solution I 250[…]+solution II 11.25[…]) is added to the new 96-well microplate. Thereafter, at the state that the light is intercepted by foil, a reaction is progressed for 30 minutes at 15˜25° C. Thereafter, the absorbance at 490 nm is measured by using an automatic ELIZA reader.

For a further data set, the system named is GOT and GPT in the serum. Description: GOT and GPT in serum. The class given is in vivo, rat. The note with it: rats, AAP 700 mg/kg, 24 hours. The protocol:
GOT and GPT in the serum as liver function indicators are enzymes which reflect the change and necrosis of the liver cell and spilled in great quantities in the blood when damaging the liver tissue. GOT/GPT in the serum are measured by using a kit for measuring GOT (Glutamic oxaloacetic transaminase) and GPT (Glutamic pyruvic transaminase) activity measuring serum transaminase (Shinyang Chemistry, Republic of Korea) manufactured by Retiman-Frankle's manner through a spectrum photometer (Ultrospec 2001 pro. amersham phamasia biotech, United Kingdom) at 505 nm and then the result is shown in FIG. 4.

For `CC(=O)Nc1ccc(O)cc1` [AAP, Acetaminophen], the “Cleaved caspase-3 with activation (FIG. 9)” value in data set [1] is “the activated and cleaved caspase-3 is increased”. For the same compound, in the data set on caspase-3, the “Activity of caspase-3 in the liver tissue” value was found to be 143.38±10.25%. In addition, in the data set on HepG2 cell, the “Cell apoptosis by DAPI dyeing (FIG. 8)” value is on record as “many cell apoptosis modes with the red color are formed” and the “DNA fragmentation in liver cell (FIG. 8)” value is reported as “The DNA fractions are confirmed identically”. Also, the “Activity of LDH (degree of liver cell injury)” value in the data set on HepG2 liver cell is on record as “increased in proportion to the AAP concentration”. This compound also gave a GPT in serum in the data set with GOT and GPT in the serum (control group 28.83±7.9) of 44.83±11.7 karmen. Besides, the GOT in serum in the data set on GOT and GPT in the serum (control group 158.97±13.4) stood at 187.95±20.7 karmen.
